Several values for one entry are separate records, joined by “and”; a condition that tells them apart may be missing. Identical values can stand only once. Counter-ions that a name gives are not always drawn. Each block holds one compound with its values, some of them ahead of it. Activity calls are given as the source filed them.
Key:
[1] = molecular target: Peroxisome proliferator-activated receptor gamma/Nuclear receptor coactivator 3 (Homo sapiens, UniProt P37231); assay: TR-FRET dose response biochemical High Throughput Screening assay for agonists of the steroid receptor coactivator 3 (SRC-3) recruitment by the peroxisome proliferator-activated receptor gamma (PPAR gamma): non-selective agonists. [Related pubchem assays: 1301 (Confirmation screen.), 1048 (Primary screen.)]; format: functional
[2] = molecular target: Peroxisome proliferator-activated receptor gamma/Nuclear receptor coactivator 2 (Homo sapiens, UniProt P37231); assay: (§1) TR-FRET dose response biochemical High Throughput Screening assay for agonists of the steroid receptor coactivator 2 (SRC-2) recruitment by the peroxisome proliferator-activated receptor gamma (PPAR gamma): non-selective agonists. [Related pubchem assays: 1297, 1032 ]; format: functional
[3] = molecular target: Peroxisome proliferator-activated receptor gamma/Nuclear receptor coactivator 1 (Homo sapiens, UniProt P37231); assay: as §1, with “1 (SRC-1)” for “2 (SRC-2)”, “assays (depositor defined):AID1300, AID1808, AID504735, AID631]” for “assays: 1297, 1032 ]”; format: protein assay
[4] = molecular target: T1, Kappa-type opioid receptor (Homo sapiens, UniProt P41145); assay: KOR agonist analogs, arrestin-GFP redistribution, SAR follow-up, imaging, image-based, set 3 (AID 488833); format: functional
[5] = molecular target: T1, Kappa-type opioid receptor; assay: SAR analysis of small molecule agonists of the kappa opioid receptor via a luminescent beta-arrestin assay - Set 3. [Related pubchem assays (depositor defined):AID1777, AID1785, AID1786, AID1966, AID2133, AID2136, AID2284, AID2500]; format: functional
Mu-type opioid receptor [6] = molecular target: T2, Mu-type opioid receptor (Homo sapiens, UniProt P35372); assay: SAR Analysis of Agonists of the MOR Receptor using an Image-Based Assay - Set 3. [Related pubchem assays (depositor defined):AID1777, AID1785, AID1786, AID1966, AID2133, AID2136, AID2284, AID2285, AID2352]; format: functional
[7] = molecular target: Delta-type opioid receptor (Homo sapiens, UniProt P41143); assay: SAR Analysis of Agonists of the DOR Receptor using an Image-Based Assay - Set 3. [Related pubchem assays (depositor defined):AID1777, AID1786]; format: functional
[8] = molecular target: T3, E3 ubiquitin-protein ligase XIAP (Homo sapiens, UniProt P98170); assay: Counter Screen using XIAP-Bir3 for Chemical Antagonists of Bir1/2 domains of IAP-family anti-apoptotic proteins. [Related pubchem assays (depositor defined):AID1018, AID1449, AID1514, AID1638, AID1749, AID1750, AID488957, AID488963]
[9] = molecular target: T3, E3 ubiquitin-protein ligase XIAP; assay: XIAP antagonists, biochemical, IAP family, fluorescence polarization (AID 1018); format: functional
[10] = molecular target: Protein-arginine deiminase type-4 (Homo sapiens, UniProt Q9UM07); assay: human PAD4 inhibitor potency, dose response, biochemical, fluorescence readout (AID 492970)
[11] = molecular target: T4, Runt-related transcription factor 1/Core-binding factor subunit beta (Homo sapiens, UniProt Q01196+Q13951); assay: inhibitors of RUNX1 Runt–CBFb-SMMHC binding, biochemical, TR-FRET (AID 1438); format: protein assay
[12] = molecular target: T4, Runt-related transcription factor 1/Core-binding factor subunit beta; assay: Confirmation of compounds inhibiting the binding between the RUNX1 Runt domain and CBFb-SMMHC via a time resolved fluorescence resonance energy transfer (TR-FRET) assay. [Related pubchem assays (depositor defined):AID1434, AID1438, AID1496, AID1560, AID1645]; format: protein assay
[13] = molecular target: T5, DNA repair protein RAD52 homolog (Homo sapiens, UniProt P43351); format: functional, biochemical
T5 sequence (P43351 whole entry): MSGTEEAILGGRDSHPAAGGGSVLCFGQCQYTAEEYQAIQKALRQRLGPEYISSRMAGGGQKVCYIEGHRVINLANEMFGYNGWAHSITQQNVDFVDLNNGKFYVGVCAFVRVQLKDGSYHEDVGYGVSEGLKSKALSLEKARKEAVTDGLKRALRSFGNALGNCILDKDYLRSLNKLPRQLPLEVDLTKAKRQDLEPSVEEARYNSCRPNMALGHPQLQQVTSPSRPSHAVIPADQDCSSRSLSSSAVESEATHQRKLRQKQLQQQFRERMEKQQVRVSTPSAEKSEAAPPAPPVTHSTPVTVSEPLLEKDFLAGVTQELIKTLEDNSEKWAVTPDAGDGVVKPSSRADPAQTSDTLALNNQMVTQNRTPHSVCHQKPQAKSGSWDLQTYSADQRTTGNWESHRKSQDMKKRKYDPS

[14] = molecular target: T6, RNA-binding protein pos-1 (Caenorhabditis elegans, UniProt G5EF15); assay: inhibitors of POS-1/mex-3 RNA binding, dose response, biochemical, fluorescence polarization (AID 1964);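 note: purified POS-1 fused to maltose binding protein made in E. coli; potency of compounds blocking POS-1 binding to fluorescent RNA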
T6 sequence (G5EF15 whole entry): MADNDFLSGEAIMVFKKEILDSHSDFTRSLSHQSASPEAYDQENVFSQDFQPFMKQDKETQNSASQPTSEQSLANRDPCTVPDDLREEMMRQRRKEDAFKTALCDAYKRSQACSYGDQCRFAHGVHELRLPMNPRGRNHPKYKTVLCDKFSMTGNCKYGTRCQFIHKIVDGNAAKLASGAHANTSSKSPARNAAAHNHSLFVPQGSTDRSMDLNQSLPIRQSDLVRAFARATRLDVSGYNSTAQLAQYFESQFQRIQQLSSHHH

[15] = molecular target: T4, Runt-related transcription factor 1/Core-binding factor subunit beta; assay: inhibitors of RUNX1 Runt–CBFb-SMMHC binding, primary screen, biochemical, FRET, Cerulean-Runt, Venus-CBFb-SMMHC, uHTS (AID 1434); format: protein assay;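 note: partner is the CBFb-SMMHC leukemia fusion protein rather than wild-type CBFb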
[16] = molecular target: T7, Mannose-6-phosphate isomerase (Homo sapiens, UniProt P34949); assay: human PMI inhibitors, high substrate, primary screen, biochemical, fluorescence intensity, high mannose 6-phosphate (AID 1220)
T7 sequence (P34949 whole entry): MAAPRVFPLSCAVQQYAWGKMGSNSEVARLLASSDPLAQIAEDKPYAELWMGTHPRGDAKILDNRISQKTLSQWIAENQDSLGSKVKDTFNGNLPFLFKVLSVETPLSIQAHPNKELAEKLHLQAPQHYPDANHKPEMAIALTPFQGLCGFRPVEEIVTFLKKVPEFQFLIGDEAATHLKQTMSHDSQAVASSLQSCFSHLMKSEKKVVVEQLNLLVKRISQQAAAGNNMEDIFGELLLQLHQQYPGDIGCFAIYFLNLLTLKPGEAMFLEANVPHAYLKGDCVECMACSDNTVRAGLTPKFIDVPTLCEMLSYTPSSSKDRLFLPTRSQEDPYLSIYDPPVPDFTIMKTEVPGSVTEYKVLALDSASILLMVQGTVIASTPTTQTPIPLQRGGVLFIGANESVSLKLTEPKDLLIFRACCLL

[17] = molecular target: Glucose-6-phosphate 1-dehydrogenase (Homo sapiens, UniProt P11413); assay: human G6PD enzyme inhibitors, dose response, selectivity assay for P. falciparum G6PD inhibitor project, biochemical, fluorescence (AID 504792); format: functional
[18] = molecular target: Glutathione-S-transferase (Schistosoma japonicum, UniProt Q26513); assay: biotin-GST/anti-GST TR-FRET signal inhibitors, dose response, artefact control for Vif-APOBEC3G degradation inhibitor project, biochemical (AID 1117362); format: functional
[19] = molecular target: T8, Zinc finger protein mex-5 (Caenorhabditis elegans, UniProt Q9XUB2); assay: MEX-5/TCR-2 RNA interaction inhibitors, dose response, biochemical, C. elegans, fluorescence polarization (AID 1960)
T8 sequence (Q9XUB2 whole entry): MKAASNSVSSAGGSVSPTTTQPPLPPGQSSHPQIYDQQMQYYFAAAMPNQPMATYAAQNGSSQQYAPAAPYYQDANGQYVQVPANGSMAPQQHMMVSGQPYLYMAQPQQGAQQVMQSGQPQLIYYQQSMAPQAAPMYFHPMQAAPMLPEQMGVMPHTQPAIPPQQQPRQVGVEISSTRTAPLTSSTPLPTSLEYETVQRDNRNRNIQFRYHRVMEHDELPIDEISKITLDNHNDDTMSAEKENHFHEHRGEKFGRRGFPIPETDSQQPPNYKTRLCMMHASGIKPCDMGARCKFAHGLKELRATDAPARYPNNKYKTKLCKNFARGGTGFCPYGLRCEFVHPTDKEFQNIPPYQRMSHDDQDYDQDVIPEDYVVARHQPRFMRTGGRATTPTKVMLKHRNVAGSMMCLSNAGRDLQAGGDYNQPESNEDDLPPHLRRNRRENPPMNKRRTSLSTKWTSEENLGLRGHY

[20] = molecular target: DNA dC->dU-editing enzyme APOBEC-3G (Homo sapiens, UniProt Q9HC16); assay: Dose Response confirmation of small molecule APOBEC3G DNA Deaminase Inhibitors via a fluorescence-based single-stranded DNA deaminase assay. [Related pubchem assays (depositor defined):AID493012, AID493028]; format: functional
[21] = THP-1 cell cytotoxicity, dose response, cytotoxicity control for Vif-APOBEC3G degradation inhibitor project, THP-1 cells (AID 1117359); format: functional; details: Human immunodeficiency virus 1, THP-1
[22] = molecular target: Eukaryotic translation initiation factor 4E (Mus musculus, UniProt P63073); assay: eIF4E–eIF4G protein interaction inhibitors, dose response, biochemical, TR-FRET (AID 855); format: functional;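 note: potency for disrupting eIF4E binding to eIF4GI seen as loss of FRET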
[23] = molecular target: Induced myeloid leukemia cell differentiation protein Mcl-1 (Homo sapiens, UniProt Q07820); format: functional
[24] = molecular target: 5-hydroxytryptamine receptor 2A (Mus musculus, UniProt P35363); format: functional, cell-based;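 note: CHO-K1 cells with tagged receptor and beta-arrestin; agonist potency measured as compound-induced activation of the receptor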
Large T antigen = Large T antigen (Simian virus 40, UniProt P03070); format: functional, Betapolyomavirus macacae;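 note: Confirmatory-stage PubChem screen for compounds that inhibit SV40 T antigen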
Mu-type opioid receptor [25] = molecular target: T2, Mu-type opioid receptor; format: functional, cell-based
[26] = molecular target: T4, Runt-related transcription factor 1/Core-binding factor subunit beta; assay: Confirmation of compounds inhibiting the binding between the RUNX1 Runt domain and CBFb-SMMHC via a fluorescence resonance energy transfer (FRET) assay. [Related pubchem assays (depositor defined):AID1434, AID1438, AID1496, AID1550, AID1645]; format: protein assay
[27] = molecular target: Sphingosine 1-phosphate receptor 1 (Homo sapiens, UniProt P21453); assay: Fluorescence-based counterscreen assay for S1P4 agonists: Cell-based dose response high throughput screening assay to identify agonists of the Sphingosine 1-Phosphate Receptor 1 (S1P1). [Related pubchem assays (depositor defined):AID1509, AID1523, AID1801, AID463107, AID463118, AID463119, AID463122, AID463123, AID463129, AID463225, AID504400, AID504460]; format: functional
[28] = molecular target: Sphingosine 1-phosphate receptor 4 (Homo sapiens, UniProt O95977); assay: Fluorescence dose response cell-based high throughput screening assay for agonists of the Sphingosine 1-Phosphate Receptor 4 (S1P4). [Related pubchem assays: 1509 (Primary screen.), 1523 (Confirmation screen in triplicates.)]; format: functional
Sphingosine 1-phosphate receptor 4, sequence (O95977 whole entry): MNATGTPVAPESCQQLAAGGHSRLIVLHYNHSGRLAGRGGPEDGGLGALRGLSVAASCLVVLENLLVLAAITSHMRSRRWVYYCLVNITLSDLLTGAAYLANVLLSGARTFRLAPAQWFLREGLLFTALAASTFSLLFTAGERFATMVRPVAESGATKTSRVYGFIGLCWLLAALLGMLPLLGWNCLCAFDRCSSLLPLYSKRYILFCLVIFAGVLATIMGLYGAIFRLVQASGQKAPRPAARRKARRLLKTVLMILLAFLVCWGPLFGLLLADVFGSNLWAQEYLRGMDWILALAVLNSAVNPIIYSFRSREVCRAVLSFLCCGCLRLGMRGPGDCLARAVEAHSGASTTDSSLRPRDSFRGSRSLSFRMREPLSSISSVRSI

T2 sequence (P35372 whole entry): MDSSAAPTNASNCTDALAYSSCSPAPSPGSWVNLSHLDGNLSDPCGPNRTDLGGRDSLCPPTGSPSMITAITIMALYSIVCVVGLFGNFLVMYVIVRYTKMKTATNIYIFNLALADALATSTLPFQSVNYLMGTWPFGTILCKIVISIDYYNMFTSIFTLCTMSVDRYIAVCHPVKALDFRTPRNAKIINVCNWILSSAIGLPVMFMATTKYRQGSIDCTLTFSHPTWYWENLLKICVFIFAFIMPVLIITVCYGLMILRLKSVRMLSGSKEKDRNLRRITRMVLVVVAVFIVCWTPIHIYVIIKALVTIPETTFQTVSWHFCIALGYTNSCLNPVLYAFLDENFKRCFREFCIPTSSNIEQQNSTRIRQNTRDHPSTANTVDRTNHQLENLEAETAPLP
Large T antigen, sequence (P03070 whole entry): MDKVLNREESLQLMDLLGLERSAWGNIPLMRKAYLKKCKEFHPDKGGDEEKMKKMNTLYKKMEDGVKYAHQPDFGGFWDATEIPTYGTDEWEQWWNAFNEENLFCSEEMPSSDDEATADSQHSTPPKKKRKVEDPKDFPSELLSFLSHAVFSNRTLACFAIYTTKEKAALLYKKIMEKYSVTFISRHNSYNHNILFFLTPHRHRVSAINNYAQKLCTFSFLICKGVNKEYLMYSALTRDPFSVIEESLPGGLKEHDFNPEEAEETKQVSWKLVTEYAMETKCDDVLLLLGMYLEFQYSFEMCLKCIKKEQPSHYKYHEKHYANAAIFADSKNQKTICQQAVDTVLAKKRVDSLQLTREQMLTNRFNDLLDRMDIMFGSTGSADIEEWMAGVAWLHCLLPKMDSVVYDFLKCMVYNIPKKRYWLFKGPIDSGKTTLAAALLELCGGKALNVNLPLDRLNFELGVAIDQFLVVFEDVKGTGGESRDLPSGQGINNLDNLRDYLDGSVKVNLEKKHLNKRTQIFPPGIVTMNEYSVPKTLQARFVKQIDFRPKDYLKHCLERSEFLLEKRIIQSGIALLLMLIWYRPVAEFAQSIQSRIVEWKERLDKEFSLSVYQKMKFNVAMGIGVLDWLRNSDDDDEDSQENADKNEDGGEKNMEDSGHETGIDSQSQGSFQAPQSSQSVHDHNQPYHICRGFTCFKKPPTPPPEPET
T4 sequence (Q01196 whole entry, the tested form may be a part): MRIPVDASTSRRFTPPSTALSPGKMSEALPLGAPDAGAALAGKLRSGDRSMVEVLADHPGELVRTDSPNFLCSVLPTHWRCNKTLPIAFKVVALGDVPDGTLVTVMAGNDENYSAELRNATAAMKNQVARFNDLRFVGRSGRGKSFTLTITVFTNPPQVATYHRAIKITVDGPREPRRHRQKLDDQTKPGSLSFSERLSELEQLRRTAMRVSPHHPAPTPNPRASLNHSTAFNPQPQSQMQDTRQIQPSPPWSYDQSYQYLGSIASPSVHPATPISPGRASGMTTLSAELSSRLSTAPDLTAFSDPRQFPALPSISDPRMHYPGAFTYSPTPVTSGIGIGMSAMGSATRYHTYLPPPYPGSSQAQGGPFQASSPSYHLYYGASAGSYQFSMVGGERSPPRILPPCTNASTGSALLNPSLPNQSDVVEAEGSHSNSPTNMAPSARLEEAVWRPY
T4 sequence (Q13951 whole entry, the tested form may be a part): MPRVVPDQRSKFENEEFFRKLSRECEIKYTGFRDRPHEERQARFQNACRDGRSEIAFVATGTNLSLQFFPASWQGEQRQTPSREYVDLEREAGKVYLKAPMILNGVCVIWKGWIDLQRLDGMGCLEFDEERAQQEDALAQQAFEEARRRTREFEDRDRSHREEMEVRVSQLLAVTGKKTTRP
T3 sequence (P98170 whole entry): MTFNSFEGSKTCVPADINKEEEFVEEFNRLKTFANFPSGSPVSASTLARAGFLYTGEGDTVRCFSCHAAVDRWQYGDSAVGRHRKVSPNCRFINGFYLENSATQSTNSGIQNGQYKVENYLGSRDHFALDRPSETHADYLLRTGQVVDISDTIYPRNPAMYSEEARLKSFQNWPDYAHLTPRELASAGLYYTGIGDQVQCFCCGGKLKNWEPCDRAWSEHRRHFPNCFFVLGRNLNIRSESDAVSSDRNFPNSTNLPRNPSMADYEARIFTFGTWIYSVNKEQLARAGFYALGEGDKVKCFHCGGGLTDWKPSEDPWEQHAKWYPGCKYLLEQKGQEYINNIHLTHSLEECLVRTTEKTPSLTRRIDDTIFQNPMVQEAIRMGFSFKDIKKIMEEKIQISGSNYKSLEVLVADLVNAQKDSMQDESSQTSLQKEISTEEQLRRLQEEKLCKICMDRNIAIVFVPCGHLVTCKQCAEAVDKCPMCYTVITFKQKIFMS
T1 sequence (P41145 whole entry): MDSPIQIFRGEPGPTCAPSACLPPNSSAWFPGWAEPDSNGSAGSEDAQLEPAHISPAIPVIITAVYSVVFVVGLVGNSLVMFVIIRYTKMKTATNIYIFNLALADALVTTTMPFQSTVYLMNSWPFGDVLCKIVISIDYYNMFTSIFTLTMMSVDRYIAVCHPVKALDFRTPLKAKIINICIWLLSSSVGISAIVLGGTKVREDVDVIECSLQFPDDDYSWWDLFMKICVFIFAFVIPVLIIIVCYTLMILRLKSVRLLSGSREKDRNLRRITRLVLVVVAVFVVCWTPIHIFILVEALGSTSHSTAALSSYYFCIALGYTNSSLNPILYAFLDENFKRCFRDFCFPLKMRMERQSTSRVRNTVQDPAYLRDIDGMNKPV
5-hydroxytryptamine receptor 2A, sequence (P35363 whole entry): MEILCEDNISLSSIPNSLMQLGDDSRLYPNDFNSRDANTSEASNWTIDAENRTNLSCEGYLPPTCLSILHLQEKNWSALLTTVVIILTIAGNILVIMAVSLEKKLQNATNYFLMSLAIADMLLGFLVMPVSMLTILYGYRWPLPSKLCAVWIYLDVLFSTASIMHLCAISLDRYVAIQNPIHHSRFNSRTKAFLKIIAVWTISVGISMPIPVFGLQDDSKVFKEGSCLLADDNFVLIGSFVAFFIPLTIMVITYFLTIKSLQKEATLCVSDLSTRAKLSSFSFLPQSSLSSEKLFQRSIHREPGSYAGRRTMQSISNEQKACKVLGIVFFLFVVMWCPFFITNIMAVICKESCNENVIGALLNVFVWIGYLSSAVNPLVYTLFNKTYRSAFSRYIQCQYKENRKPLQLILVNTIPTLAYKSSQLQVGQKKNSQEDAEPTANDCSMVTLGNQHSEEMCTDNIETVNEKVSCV
Sphingosine 1-phosphate receptor 1, sequence (P21453 whole entry): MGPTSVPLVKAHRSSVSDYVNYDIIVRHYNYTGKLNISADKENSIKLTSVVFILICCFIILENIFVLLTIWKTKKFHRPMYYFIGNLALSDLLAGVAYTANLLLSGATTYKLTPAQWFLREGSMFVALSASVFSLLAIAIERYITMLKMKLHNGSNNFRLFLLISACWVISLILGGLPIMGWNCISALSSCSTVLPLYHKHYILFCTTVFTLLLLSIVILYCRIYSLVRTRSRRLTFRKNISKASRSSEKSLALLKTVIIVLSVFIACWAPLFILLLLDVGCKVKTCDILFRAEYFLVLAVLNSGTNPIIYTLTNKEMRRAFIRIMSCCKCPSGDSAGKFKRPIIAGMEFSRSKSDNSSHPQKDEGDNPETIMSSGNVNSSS
Delta-type opioid receptor, sequence (P41143 whole entry): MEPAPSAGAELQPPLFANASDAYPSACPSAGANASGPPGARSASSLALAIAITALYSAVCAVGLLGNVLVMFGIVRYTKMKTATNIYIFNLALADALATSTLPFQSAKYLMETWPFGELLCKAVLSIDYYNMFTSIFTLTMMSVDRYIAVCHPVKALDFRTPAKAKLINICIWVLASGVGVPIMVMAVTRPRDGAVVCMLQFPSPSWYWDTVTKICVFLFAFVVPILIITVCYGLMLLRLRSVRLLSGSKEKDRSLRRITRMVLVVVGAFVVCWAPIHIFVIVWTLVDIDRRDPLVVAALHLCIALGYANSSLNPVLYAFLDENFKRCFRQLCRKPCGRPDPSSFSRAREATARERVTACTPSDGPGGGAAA
Eukaryotic translation initiation factor 4E, sequence (P63073 whole entry): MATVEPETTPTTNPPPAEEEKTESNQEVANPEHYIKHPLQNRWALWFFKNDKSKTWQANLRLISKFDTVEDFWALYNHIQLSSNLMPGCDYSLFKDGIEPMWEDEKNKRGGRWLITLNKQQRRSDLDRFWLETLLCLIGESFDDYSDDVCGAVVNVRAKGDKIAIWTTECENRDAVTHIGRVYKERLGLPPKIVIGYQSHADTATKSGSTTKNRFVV
Glutathione-S-transferase, sequence (Q26513 whole entry): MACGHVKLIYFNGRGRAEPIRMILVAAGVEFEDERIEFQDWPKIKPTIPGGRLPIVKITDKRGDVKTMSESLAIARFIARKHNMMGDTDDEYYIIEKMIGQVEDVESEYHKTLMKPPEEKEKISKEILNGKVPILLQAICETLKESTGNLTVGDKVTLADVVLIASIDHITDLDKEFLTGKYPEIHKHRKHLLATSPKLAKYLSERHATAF

Structure (SMILES): CCOc1ccc(CCNC(=O)CSc2cc(=O)n(CC)c3ccccc23)cc1OCC
EC50 [1]: > 79.4 µM (not active)
EC50 [2]: 121 µM (not active)
EC50 [3]: > 79.4 µM (inactive)

Structure (SMILES): COc1ccc(NC(=O)Cc2ccc(C)cc2)c([N+](=O)[O-])c1
IC50 [8]: > 100 µM (inactive)
IC50 [9]: > 100 µM (not active)

Structure (SMILES): CN1CCc2cccc3c2[C@H]1Cc1ccc(O)c(O)c1-3 [APOMORPHINE HYDROCHLORIDE]
IC50 [11]: 9.81 µM (active)
IC50 [12]: 18.9 µM (active)
AC50 [13]: 7.1 µM (active)
EC50 [14]: 16.9 µM (inconclusive)
IC50 [15]: 9.66 µM (active)
IC50 [16]: 14.6 µM (active)
IC50 [17]: 34.6 µM (inactive)
IC50 [18]: 74.8 µM (active)
EC50 [19]: 4.42 µM (active)
IC50 [20]: 26.2 µM (active)
CC50 [21]: 16.9 µM (active)
IC50 [22]: > 64 µM (inactive)
IC50 [23]: 4.38 µM (active)
EC50 [24]: 6.41 nM (active) and 8.15 nM (active)
IC50 (Large T antigen): > 100 µM (active) and 15.3 µM (active)
EC50 (Mu-type opioid receptor [25]): 92.5 µM (inactive) and 92.4 µM (inactive)
IC50 [26]: 13.4 µM (active)

Structure (SMILES): C/C(=N/NC(N)=S)c1cc2ccc(O)cc2oc1=O
EC50 [27]: 93.5 µM (inactive)
EC50 [28]: 11.8 µM (not active)
IC50 (Large T antigen): 27.7 µM (active)

Second part, the compound after the results:

EC50 [4]: > 32 µM (inactive)
EC50 [5]: > 20 µM (inactive)
EC50 (Mu-type opioid receptor [6]): > 32 µM (inactive)
EC50 [7]: > 64 µM (inactive)
Structure (SMILES): Fc1cccc(F)c1CSc1nnc(-c2ccccn2)n1Cc1ccco1

IC50 [10]: > 100 µM (inactive)
Structure (SMILES): O=C1NCC2=C1C(c1ccccc1)Nc1ccccc1N2 (stereo not given)

From ChEMBL document CHEMBL1201862, “PubChem BioAssay data set” (2004)
